The numbers were not newly measured in publication PMC2694617 (Journal of medicinal chemistry, 2009), which cites them from elsewhere.

Data set [1] concerns the target T1, human NTS1 (Homo sapiens, UniProt P30989).
The conditions of data set [2]: ref [6],[11],[18],[19].
The target of data set [3] is T1, human NTS1. The source holds these as a separate data set.
Data set [4] deals with rat model of inflammatory pain. The following applies: in vivo.

Read-outs that look alike come from different tables or passages of the source.

T1 sequence (P30989 whole entry): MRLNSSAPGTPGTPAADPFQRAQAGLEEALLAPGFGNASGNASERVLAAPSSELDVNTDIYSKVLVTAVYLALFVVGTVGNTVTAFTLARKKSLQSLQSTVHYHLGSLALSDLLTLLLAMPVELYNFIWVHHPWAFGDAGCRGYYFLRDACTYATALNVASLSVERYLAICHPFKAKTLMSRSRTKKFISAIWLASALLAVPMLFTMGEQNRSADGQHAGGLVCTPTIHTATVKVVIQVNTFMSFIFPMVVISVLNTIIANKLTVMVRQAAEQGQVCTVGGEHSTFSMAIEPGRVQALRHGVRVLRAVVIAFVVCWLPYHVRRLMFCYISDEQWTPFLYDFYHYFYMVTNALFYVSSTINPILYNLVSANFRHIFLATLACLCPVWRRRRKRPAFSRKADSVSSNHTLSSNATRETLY

A word on the Ki: it is a measure of affinity in units of concentration, obtained from inhibition or displacement. Regarding neurotensin (from UniProt P30990), the Ki with human NTS1 [1] is 0.5 nM. In the case of “NT: endogenous neuropeptide; full-length, unmodified NT”, the analgesic activity entry (mediated spinally and/or supraspinally by NT receptors, ref [5],[6]) is “potent analgesic activity”. For the substance “(N-methyl-Arg)-Lys-Pro-(L-neo-Trp)-(tert-Leu)-Leu [NT69L]”, where the note is “ref [6],[11],[18],[19]”, the analgesic activity result is listed as “potent analgesic”. The BBB penetration entry in data set [2] was “penetrates the BBB”. By Kd is commonly meant the equilibrium constant for the complex coming apart. For “cyclo(KKPYILKKPYIL) [JMV2012] [listing 1 of 2 here]”, the Kd with human NTS1 [3] (ref [12]) is 150 nM. Take contulakin-G: in data set [4], the potency entry is on record as “picomolar potency”.

As for “cyclo(KKPYILKKPYIL) [JMV2012] [listing 2 of 2 here]”, the analgesic activity result (previously described, ref [12]) is “analgesic”. In the case of “(N-methyl-Arg)-Lys-Pro-(L-neo-Trp)-(tert-Leu)-Leu (RKPWLL) [NT69L]”, the Kd with human NTS1 [3] (ref [11]) was 1.55 nM.
